Earlier results in US20150045422A1 (priority 2005, published 2015).

Assays:
[1] = test system: Herpes Simplex Virus Type 2 (HSV2)

Molecule | PSR Potency in Human Cells (IC50) HEp2 (HEp2 (epidermoid)) [µg/mL] | PSR Potency in Human Cells (IC50) HL (HL (lymphocyte)) [µg/mL] | PSR Potency in Human Cells (IC50) HeLa (HeLa (uterine)) [µg/mL] | PSR Potency in Human Cells (IC50) HEK (HEK (kidney)) [µg/mL] | PSR Potency in Human Cells (IC50) HSV2 [1] [µg/mL] | concentrations that did not decrease cell viability (HEp-2 cells)
CC1=C[C@H]2O[C@@H]3[C@H](O)C[C@](C)([C@@]2(CO)[C@H](O)C1=O)[C@]31CO1 [DON, Deoxynivalenol] | 0.25 | 0.5 | 1 | 3 | 0.094 | –
CC(=O)O[C@@H]1[C@@H](O)[C@H]2O[C@@H]3C=C(C)C(=O)[C@@H](O)[C@]3(CO)[C@]1(C)[C@]21CO1 [FusX, Fusarenon-X] | – | 0.3 | 0.1 | 1 | 0.026 | –
CC(=O)OC[C@]12C[C@H](O)C(C)=C[C@H]1O[C@@H]1[C@H](O)[C@@H](OC(C)=O)[C@@]2(C)[C@]12CO2 [NEOS, neosolaniol] | – | 0.05 | 0.1 | 0.06 | 0.052 | below 200 ng/ml
CC1=C[C@H]2O[C@@H]3[C@H](O)[C@@H](O)[C@](C)([C@@]2(CO)[C@H](O)C1=O)[C@]31CO1 [NIV, Nivalenol] | 0.225 | 0.3 | 0.3 | 1 | 0.05 | –
Crotocin | 0.25 | 2 | 0.5 | 0.6 | – | –
